Reference: paper PMC10122656, “Siglec-6 mediates the uptake of extracellular vesicles through a noncanonical glycolipid binding pocket” (Nature Communications, 2023)
Where a chain is given by its changes, count along the chain named. “And” between values parts separate entries of the source, which are not always exact repeats. Equal values may be shown once.

Assays:
Test in all cases: Cell assay (liposome/EV binding, flow cytometry)
Assay type in all cases: cell-based
Siglec-9 R120A CHO cells = molecular target: T1, Siglec-9 R120A CHO cells (Homo sapiens, UniProt Q9Y336, R120A); conditions: Sig-9 R120A†; † after treatment of cells with neuraminidase; 3 mol% ganglioside liposomes; replicates
T1 construct: expressed in transfected cells
T1 sequence (Q9Y336 18-463 R120A): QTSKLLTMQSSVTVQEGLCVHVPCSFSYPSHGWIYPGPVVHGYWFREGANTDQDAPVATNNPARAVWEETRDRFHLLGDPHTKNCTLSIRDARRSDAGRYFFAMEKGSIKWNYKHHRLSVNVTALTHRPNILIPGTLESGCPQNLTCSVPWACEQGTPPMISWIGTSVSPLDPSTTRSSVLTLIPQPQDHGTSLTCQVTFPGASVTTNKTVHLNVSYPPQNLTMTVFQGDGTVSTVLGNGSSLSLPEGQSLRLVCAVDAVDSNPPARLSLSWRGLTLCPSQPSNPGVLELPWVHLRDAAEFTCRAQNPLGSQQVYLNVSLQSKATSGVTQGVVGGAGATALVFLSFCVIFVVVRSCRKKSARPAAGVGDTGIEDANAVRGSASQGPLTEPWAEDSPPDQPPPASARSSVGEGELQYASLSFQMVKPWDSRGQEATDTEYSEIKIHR
Protocol: (§1) Stock lipids (DSPC, Cholesterol, PEG45–DSPE) solutions were prepared by solvating the lipids in chloroform. An appropriate volume of each lipid solution was transferred to a glass test tube to reach the desired mol% of the component. The chloroform was then removed under N2 gas to yield a lipid thin film. Once dry, 100 µL of DMSO was added to the lipid-containing test tube and then the functional lipids (ganglioside, AF647–PEG45–DSPE, Siglec ligand–PEG45–DSPE, pHrodo–PEG45–DSPE, NGL) was added from their respect DMSO stock solution. The lipid mixture was then stored at −80 °C until completely frozen at which point excess DMSO was removed via lyophilization. Dry lipids were then stored at −80 °C until they were extruded. Lipid suppliers can be found in Supplementary Table 4.
(§2) Dry lipids were then hydrated in 1 mL of PBS. The lipids were then sonicated in a bath sonicator in a cycle of 1 min on, 5 min off for a total of five cycles. Liposomes were then extruded using an Avanti mini extruder first using an 800 nm filter and then a 100 nm filter yielding liposomes that were 130 ± 35 nm (Supplementary Table 5) measured using a Malvern Panalytical Zetasizer Nano S. Liposomes were stored at 4 °C.
(§3) 200,000 cells/well were plated into a 96-well U-bottom microplate and centrifuged at 300 × g for 5 min. The cells were then resuspended in 50 µL of 50 µM liposome/50 µg/mL (protein concentration) of EV solution in DMEM F12 5% FBS and incubated at 37 °C for 30 min. Excess liposomes were then removed via centrifuged at 300 × g for 5 min followed by washing the cells with FACS solution. The cells were then resuspended in (1:250 V/V) anti-Siglec-flow buffer (1% V/V FBS, 500 µM, EDTA Hank’s Balanced Salt Solution pH 7.4), solution and left to rest on ice for 30 min. The cells were then centrifuged again at 300 × g for 5 min and the cells were resuspended in FACS buffer solution and were then ready for analysis by flow cytometry. Information regarding antibody clone, catalog number supplier, label isotype, and dilution can be found in Supplementary Table 6. The Siglec-positive cells were gated on for liposome-binding analysis (Supplementary Fig. 1b).
(§4) Flow cytometry measurements were collected on a 5-laser Fortessa X-20 (BD Bioscience). All the resulting data were analyzed using FlowJo (10.5.3) software (BD Biosciences).
(§5) Cells were harvested and resuspended in complete media with either Neuraminidase A or S. The cells were then placed in a 37 °C shaking incubator for 1 h. The cells were then washed with complete media and then the liposome binding assay was performed as described above.

Siglec-4 WT CHO cells = molecular target: T2, Siglec-4 WT CHO cells (Homo sapiens, UniProt P20916); conditions: Sig-4 WT†; † after treatment of cells with neuraminidase; 3 mol% ganglioside liposomes; replicates
T2 construct: expressed in transfected cells
T2 sequence (P20916 20-626): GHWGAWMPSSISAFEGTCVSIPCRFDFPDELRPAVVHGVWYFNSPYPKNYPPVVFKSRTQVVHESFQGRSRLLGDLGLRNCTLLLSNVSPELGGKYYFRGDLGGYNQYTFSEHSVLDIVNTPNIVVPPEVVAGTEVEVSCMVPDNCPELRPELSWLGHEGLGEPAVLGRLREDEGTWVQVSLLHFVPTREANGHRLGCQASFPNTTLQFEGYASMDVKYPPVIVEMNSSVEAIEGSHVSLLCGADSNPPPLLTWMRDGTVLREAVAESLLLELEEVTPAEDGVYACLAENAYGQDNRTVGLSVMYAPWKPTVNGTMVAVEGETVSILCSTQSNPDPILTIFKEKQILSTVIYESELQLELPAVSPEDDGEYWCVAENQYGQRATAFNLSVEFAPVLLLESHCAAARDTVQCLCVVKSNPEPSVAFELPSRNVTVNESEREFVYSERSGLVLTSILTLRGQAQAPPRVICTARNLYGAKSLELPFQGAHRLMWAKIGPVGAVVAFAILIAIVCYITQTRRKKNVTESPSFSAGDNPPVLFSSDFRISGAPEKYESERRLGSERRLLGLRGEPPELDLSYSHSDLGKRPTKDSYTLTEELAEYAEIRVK
Protocol: as §1, §2, §3, §4, §5

Siglec-7 R124A CHO cells = molecular target: T3, Siglec-7 R124A CHO cells (Homo sapiens, UniProt Q9Y286, R124A); conditions: Sig-7 R124A†; † after treatment of cells with neuraminidase; 3 mol% ganglioside liposomes; replicates
T3 construct: expressed in transfected cells
T3 sequence (Q9Y286 19-467 R124A): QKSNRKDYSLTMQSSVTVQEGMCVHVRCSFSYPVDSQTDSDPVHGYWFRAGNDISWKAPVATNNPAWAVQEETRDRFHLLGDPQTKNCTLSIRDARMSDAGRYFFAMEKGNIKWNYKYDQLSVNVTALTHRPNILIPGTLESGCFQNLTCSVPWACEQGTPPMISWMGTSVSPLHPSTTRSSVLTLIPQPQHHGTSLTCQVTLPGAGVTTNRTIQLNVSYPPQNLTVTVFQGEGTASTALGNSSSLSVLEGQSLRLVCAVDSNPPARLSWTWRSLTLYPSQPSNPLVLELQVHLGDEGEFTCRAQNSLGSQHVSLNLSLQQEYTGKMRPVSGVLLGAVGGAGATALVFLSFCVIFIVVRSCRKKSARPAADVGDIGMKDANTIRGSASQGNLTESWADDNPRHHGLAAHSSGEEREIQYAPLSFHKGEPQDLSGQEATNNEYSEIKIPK
Protocol: as §1, §2, §3, §4, §5

Siglec-4 R118A CHO cells = molecular target: T4, Siglec-4 R118A CHO cells (Homo sapiens, UniProt P20916, R118A); conditions: Sig-4 R118A†; † after treatment of cells with neuraminidase; 3 mol% ganglioside liposomes; replicates
T4 construct: expressed in transfected cells
T4 sequence (P20916 20-626 R118A): T2 sequence (P20916 20-626) with R99A
Protocol: as §1, §2, §3, §4, §5

Row | Substance | log10(MFI AF647) of GLL relative to log10(MFI AF647) of the same GLL against UT CHO cells (Fig. 2a) (Siglec-9 R120A CHO cells) | log10(MFI AF647) of GLL relative to log10(MFI AF647) of the same GLL against UT CHO cells (Fig. 2a) (Siglec-4 WT CHO cells) | log10(MFI AF647) of GLL relative to log10(MFI AF647) of the same GLL against UT CHO cells (Fig. 2a) (Siglec-7 R124A CHO cells) | log10(MFI AF647) of GLL relative to log10(MFI AF647) of the same GLL against UT CHO cells (Fig. 2a) (Siglec-4 R118A CHO cells)
1 | GD1a | 0.17 and 0.16 (3×) | 1.02 and 0.9 and 0.95 and 0.88 | -0.2 and -0.15 and -0.24 | 0 (2×) and 0.02 and 0.01
2 | GM4 | 0.05 and 0.07 and 0.08 (2×) | -0.3 and -0.1 and -0.11 and -0.09 | -0.35 and -0.25 and -0.4 | -0.12 (2×) and -0.1 and -0.07
3 | GM3 | -0.21 and -0.17 and -0.15 and -0.13 | -0.11 (2×) and -0.14 and -0.2 | -0.45 and -0.31 and -0.25 | -0.24 and -0.19 (2×) and -0.2
4 | GQ1b | 0.15 and 0.12 and 0.13 and 0.1 | 0.13 and 0.12 and 0.1 and 0.11 | 0.01 and -0.05 and -0.03 | -0.12 and -0.13 (2×) and -0.1
5 | GT1b | 0.16 (2×) and 0.11 and 0.15 | 1.15 and 1 and 1.11 and 1.1 | -0.17 and -0.19 and -0.09 | 0.12 and 0.1 and 0.13 and 0.14
6 | GD1b | 0.12 (2×) and 0.14 (2×) | 0.9 and 0.93 and 0.96 and 0.92 | -0.23 (2×) and -0.27 | 0.08 and 0.05 and 0.02 and 0.03
7 | GM1 | 0.14 and 0.1 (2×) and 0.16 | 0.57 (2×) and 0.53 and 0.49 | -0.08 and -0.05 and -0.01 | -0.3 and -0.31 (2×) and -0.32
8 | GM2 | 0.15 and 0.16 and 0.17 (2×) | 0.08 (2×) and -0.03 and -0.04 | -0.25 and -0.22 and -0.35 | 0 and -0.04 and -0.02 and -0.03
9 | GD3 | 0.21 and 0.15 (2×) and 0.19 | 0.51 (2×) and 0.52 and 0.5 | -0.08 and -0.02 and -0.1 | -0.13 and -0.1 and -0.07 and -0.14
